Source: patent US7795244B2, “Penem prodrugs” (priority 2006, dated 2010)
Converted amounts (≈) assume the structure as drawn. “And” between values parts separate entries of the source, which are not always exact repeats. Equal entries are not always repeated. Where two headings read alike, the source gives them in different places.

Key:
[1] = Stability in the presence of porcine pancrelipase (PPE); assay type: in vitro ADME; conditions: pig, porcine pancrelipase (ku-zyme HP) in phosphate buffer, 50 μM substrate, pH 7.4, 37° C.
[2] = human, pH 7.4
[3] = Stability in human intestinal juice (HIJ); conditions: pooled human intestinal juice (4 subjects), buffered, pH 7.4
[4] = by comparison to intravenous AUCs (Table 4, Foulds et al.), cited from earlier work
plasma carnitine = test: Acute model of carnitine depletion; assay type: in vivo; conditions: 200 mg/kg BID orally for 4 days, Sprague-Dawley rats, relative to vehicle control (FIG. 1)
Procedure: Of interest was a comparison between Compound 1 and […] in terms of the prodrug side chains' tendency or lack thereof to deplete plasma carnitine following metabolism of the intact prodrug. This was evaluated in vivo using an acute model of carnitine depletion in Sprague-Dawley rats. To understand the potential impact in vivo, radiolabeled pivalic acid (Compound B1 side chain) and 2-ethylbutyric acid (Compound 1 side chain) were administered orally at a dose of 200 mg/kg BID for 4 days to two separate groups of animals. […] Doses were administered in 100 mM sodium phosphate pH 6.6 at a dose volume of 10 mL/kg. Blood samples were obtained at 24 hour intervals following initiation of the study, processed for plasma and assayed for carnitine levels by LC/MS/MS. A vehicle control consisting of oral administration of an equal volume of buffer without compound was completed as a baseline comparison.

[5] = Pharmacokinetics of total radioactivity after single oral dose; assay type: in vivo, Sprague-Dawley Rats; conditions: single oral 200 mg/kg; rats
Procedure: A separate study using a single 200 mg/kg dose of each radiolabeled compound (pivalic acid and […]) was completed in rats to determine systemic exposure of dose following oral administration. The oral administration route was chosen because it is expected that the majority of hydrolysis of the prodrugs will occur within the intestine prior to entering systemic circulation. Plasma samples were obtained prior to dosing and at 0.25, 0.5, 1, 4, 8, and 24 hr post-dose. Samples were quantified for radioactivity by liquid scintillation counting and the counts were converted to […] equivalents/mL. As shown in Table 5 and FIG. 2, once absorbed, radioactivity associated with 2-ethylbutyric acid is cleared 4.5 fold faster than pivalic acid, reflecting efficient metabolic processing and excretion of the compound.

Equilibrium solubility = assay type: physicochemical; conditions: aqueous buffer, thermodynamic from solid, 25 mM phosphate buffer (pH 5), ambient temperature / 25° C.
Procedure: Vials containing excess prodrug in phosphate buffer were rotated for up to 48 hours. After the equilibrium period, samples were pulled, filtered through 0.45 μm Gelman Acrodisc Nylon syringe filter and analyzed for drug concentration using HPLC. The HPLC conditions were: Column. C18, SymmetryShield RP, Waters, 4.6×150 mm, 3.5 micron; Mobile phase A: Acetonitrile; Mobile phase B: 0.1% TFA in water; Flow rate, 1 mL/min; Run Time: 30 min Inj. vol. 20 μL; Detection: 210 nm; Dissolving solvent: Acetonitrile/water (50:50 v:v).

S. pneumoniae 1095 [6] = test: Murine acute systemic infection model; conditions: Murine acute systemic infection vs. S. pneumoniae 1095; oral BID; survival day four post-infection; repeat experiments
S. pneumoniae 1095 [7] = test: Murine respiratory tract infection model; conditions: Murine respiratory tract infection vs. S. pneumoniae 1095; oral BID for two days from 18 h post-infection; survival day ten; repeat experiments
K. pneumoniae 1109 = test: Murine acute systemic infection model; conditions: Murine acute systemic infection vs. K. pneumoniae 1109; oral BID; survival day four post-infection; repeat experiments
K. pneumoniae 6485 = test: Murine acute systemic infection model; conditions: Murine acute systemic infection vs. K. pneumoniae 6485; oral BID; survival day four post-infection; repeat experiments
H. influenzae BLNAR = test: Gerbil otitis media model; conditions: Gerbil otitis media vs. H. influenzae BLNAR, oral TID for two days from 18 h post-infection, bacterial levels in middle ear fluid day four, repeat experiments
[8] = tested on: porcine pancrelipase (PPE); test: Stability in the presence of porcine pancrelipase (PPE); assay type: in vitro ADME; conditions: ku-zyme Lot 1; 50 μM substrate, pH 7.4, 37° C.
[9] = humans; given orally as a mixture of two stereoisomers; Foulds et al.; cited from earlier work

C[C@@H](O)[C@H]1C(=O)N2C(C(=O)OCOC(=O)C(C)(C)C)=C(S[C@H]3CC[S@@+]([O-])C3)S[C@H]12 (racemic) [Compound B2, reference compound]
half-life at 50 µM ([1]; pH 7.4, ku-zyme Lot 1): 11.6 min
half-life at 50 µM ([1]; pH 7.4, ku-zyme lot 2): 19.6 min
HIJ Clint (avg) [2]: 0.09 mL/min
Km [3]: 40 µM
fraction absorbed ([4]; sulopenem equivalent dose 205 mg): 38.5%
fraction absorbed ([4]; sulopenem equivalent dose 409 mg): 33.5%

CCC(CC)C(=O)O [2-ethylbutyric acid]
change in plasma carnitine (plasma carnitine): statistically insignificant changes in plasma carnitine
clearance of radioactivity, fold faster than pivalic acid [5]: 4.5 fold

CCOC(C)(C)C(=O)OCOC(=O)C1=C(S[C@H]2CC[S@@+]([O-])C2)S[C@@H]2[C@@H]([C@@H](C)O)C(=O)N12 [Compound 2, (2-Ethoxy-2-methyl-1-oxopropoxy)methyl (5R,6S)-6-[(1R)-1-hydroxyethyl]-7-oxo-3-[[(1R,3S)-tetrahydro-1-oxido-3-thienyl]thio]-4-thia-1-azabicyclo[3.2.0]hept-2-ene-2-carboxylate]
half-life at 50 µM ([1]; pH 7.4, ku-zyme Lot 1): 19.1 min
HIJ Clint (avg) [2]: 0.13 mL/min
solubility (Equilibrium solubility): 2900 µg/mL (≈ 5870 µM)
PD50 (S. pneumoniae 1095 [6]): 7.9 mg/kg and 6.3 mg/kg and 11.0 mg/kg
PD50 (S. pneumoniae 1095 [7]): 19.7 mg/kg and 38.5 mg/kg
PD50 (K. pneumoniae 1109): 12.5 mg/kg and 16.2 mg/kg
Km [3]: 105 µM

C[C@@H](O)[C@H]1C(=O)N2C(C(=O)OCOC(=O)OC3CCC(C)(C)CC3)=C(S[C@H]3CC[S@@+]([O-])C3)S[C@H]12 [Compound A]
PD50 (K. pneumoniae 6485): 40.7 mg/kg
ED50 (H. influenzae BLNAR): 8.7 mg/kg
ED50 (H. influenzae BLNAR; Haemophilus influenzae, in Meriones unguiculatus, po): 6.9 mg/kg
half-life at 50 µM ([1]; pH 7.4, ku-zyme Lot 1): 3.9 ± 1.1 min
half-life at 50 µM ([1]; pH 7.4, ku-zyme lot 2): 6.3 min
HIJ Clint (avg) [2]: 0.38 mL/min
solubility (Equilibrium solubility): 136 µg/mL (≈ 255 µM)
PD50 (S. pneumoniae 1095 [6]): 9.0 mg/kg and 15.3 mg/kg
PD50 (S. pneumoniae 1095 [7]): 17.8 mg/kg and 20.8 mg/kg
PD50 (K. pneumoniae 1109): 10.1 mg/kg and 15.3 mg/kg
Km [3]: 300 µM

C[C@@H](O)[C@H]1C(=O)N2C(C(=O)OCOC(=O)C(C)(C)C)=C(S[C@H]3CC[S@@+]([O-])C3)S[C@H]12 [Compound B1, reference compound]
PD50 (K. pneumoniae 6485): >100 mg/kg
half-life at 50 µM ([1]; pH 7.4, ku-zyme lot 2): 22.5 min
HIJ Clint (avg) [2]: 0.11 mL/min
solubility (Equilibrium solubility): 389 µg/mL (≈ 839 µM)
Km [3]: 29 µM

CCC(CC)(CC)C(=O)OCOC(=O)C1=C(S[C@H]2CC[S@@+]([O-])C2)S[C@@H]2[C@@H]([C@@H](C)O)C(=O)N12 [Compound C]
half-life at 50 µM ([1]; pH 7.4, ku-zyme Lot 1): 21.1 min

CCCC(C)(C)C(=O)OCOC(=O)C1=C(S[C@H]2CC[S@@+]([O-])C2)S[C@@H]2[C@@H]([C@@H](C)O)C(=O)N12 [Compound I]
half-life at 50 µM ([1]; pH 7.4, ku-zyme Lot 1): 14.4 min

CC(C)CC(=O)OCOC(=O)C1=C(S[C@H]2CC[S@@+]([O-])C2)S[C@@H]2[C@@H]([C@@H](C)O)C(=O)N12 [E]
half-life at 50 µM ([1]; pH 7.4, ku-zyme Lot 1): 6.4 min

CC(C)C(=O)OCOC(=O)C1=C(S[C@H]2CC[S@@+]([O-])C2)S[C@@H]2[C@@H]([C@@H](C)O)C(=O)N12 [F]
half-life at 50 µM ([1]; pH 7.4, ku-zyme Lot 1): 4.7 min

CC(=O)OCOC(=O)C1=C(S[C@H]2CC[S@@+]([O-])C2)S[C@@H]2[C@@H]([C@@H](C)O)C(=O)N12 [G]
half-life at 50 µM ([1]; pH 7.4, ku-zyme Lot 1): 21.2 min
HIJ Clint (avg) [2]: 0.18 mL/min
Km [3]: 390 µM

CCC(C)C(=O)OCOC(=O)C1=C(S[C@H]2CC[S@@+]([O-])C2)S[C@@H]2[C@@H]([C@@H](C)O)C(=O)N12 (stereo partly shown) [H]
half-life at 50 µM ([1]; pH 7.4, ku-zyme Lot 1): 6.8 min

CCC(C)(C)C(=O)OCOC(=O)C1=C(S[C@H]2CC[S@@+]([O-])C2)S[C@@H]2[C@@H]([C@@H](C)O)C(=O)N12 [J]
half-life at 50 µM ([1]; pH 7.4, ku-zyme Lot 1): 11 min

CCCCC(C)(C)C(=O)OCOC(=O)C1=C(S[C@H]2CC[S@@+]([O-])C2)S[C@@H]2[C@@H]([C@@H](C)O)C(=O)N12 [K]
half-life at 50 µM ([1]; pH 7.4, ku-zyme Lot 1): 14.5 min

CCC(C)(CC)C(=O)OCOC(=O)C1=C(S[C@H]2CC[S@@+]([O-])C2)S[C@@H]2[C@@H]([C@@H](C)O)C(=O)N12 [M]
half-life at 50 µM ([1]; pH 7.4, ku-zyme Lot 1): 39.4 min

CC(C)C(C)(C)C(=O)OCOC(=O)C1=C(S[C@H]2CC[S@@+]([O-])C2)S[C@@H]2[C@@H]([C@@H](C)O)C(=O)N12 [N]
half-life at 50 µM ([1]; pH 7.4, ku-zyme Lot 1): 11.1 min

CCCC(CCC)C(=O)OCOC(=O)C1=C(S[C@H]2CC[S@@+]([O-])C2)S[C@@H]2[C@@H]([C@@H](C)O)C(=O)N12 [O]
half-life at 50 µM ([1]; pH 7.4, ku-zyme Lot 1): 8.3 min

CCC(C)C(=O)OCOC(=O)C1=C(S[C@H]2CC[S@@+]([O-])C2)S[C@@H]2[C@@H]([C@@H](C)O)C(=O)N12 (stereo partly shown) [P]
PPE Half Life [8]: 4.2 min

CCCC(C)C(=O)OCOC(=O)C1=C(S[C@H]2CC[S@@+]([O-])C2)S[C@@H]2[C@@H]([C@@H](C)O)C(=O)N12 (stereo partly shown) [Q]
half-life at 50 µM ([1]; pH 7.4, ku-zyme Lot 1): 4.8 min

CCC(C(=O)OCOC(=O)C1=C(S[C@H]2CC[S@@+]([O-])C2)S[C@@H]2[C@@H]([C@@H](C)O)C(=O)N12)C(C)C (stereo partly shown) [R]
half-life at 50 µM ([1]; pH 7.4, ku-zyme Lot 1): 5.3 min

C[C@@H](O)[C@H]1C(=O)N2C(C(=O)OCOC(=O)C(C)(C)C(C)(C)C)=C(S[C@H]3CC[S@@+]([O-])C3)S[C@H]12 [S]
half-life at 50 µM ([1]; pH 7.4, ku-zyme Lot 1): 6.3 min

CC(C)C(C(=O)OCOC(=O)C1=C(S[C@H]2CC[S@@+]([O-])C2)S[C@@H]2[C@@H]([C@@H](C)O)C(=O)N12)C(C)C [T]
half-life at 50 µM ([1]; pH 7.4, ku-zyme Lot 1): 7.7 min

CC(C)CC(CC(C)C)C(=O)OCOC(=O)C1=C(S[C@H]2CC[S@@+]([O-])C2)S[C@@H]2[C@@H]([C@@H](C)O)C(=O)N12 [U]
half-life at 50 µM ([1]; pH 7.4, ku-zyme Lot 1): 6.4 min

CC(C)CC(C)(C)C(=O)OCOC(=O)C1=C(S[C@H]2CC[S@@+]([O-])C2)S[C@@H]2[C@@H]([C@@H](C)O)C(=O)N12 [V]
half-life at 50 µM ([1]; pH 7.4, ku-zyme Lot 1): 10.5 min

C[C@@H](O)[C@H]1C(=O)N2C(C(=O)OCOC(=O)CC(C)(C)C)=C(S[C@H]3CC[S@@+]([O-])C3)S[C@H]12 [W]
half-life at 50 µM ([1]; pH 7.4, ku-zyme Lot 1): 7.6 min

CCC(=O)OCOC(=O)C1=C(S[C@H]2CC[S@@+]([O-])C2)S[C@@H]2[C@@H]([C@@H](C)O)C(=O)N12 [X]
half-life at 50 µM ([1]; pH 7.4, ku-zyme Lot 1): 4.7 min

C[C@@H](O)[C@H]1C(=O)N2C(C(=O)OCOC(=O)C(C(C)(C)C)C(C)(C)C)=C(S[C@H]3CC[S@@+]([O-])C3)S[C@H]12 [Y]
half-life at 50 µM ([1]; pH 7.4, ku-zyme Lot 1): 8 min

CC(O)C1C(=O)N2C(C(=O)OCOC(=O)C(C)(C)C)=C(SC3CC[S+]([O-])C3)SC12 (stereo not shown) [sulopenem POM ester]
oral bioavailability (in words) [9]: orally bioavailable in humans
